This is an account of results in patent US20250249144A1, “PEPTIDE AMPHIPHILE SUPRAMOLECULAR POLYMERS FOR SPRAY DELIVERY AND TISSUE REGENERATION APPLICATIONS” (The University of Southern Mississippi, priority 2024, published 2025).

Non-standard residues stand in square brackets, D forms with d. Residues, ends and D or L forms follow the SMILES beside them. ξ: configuration not given here. *: point of attachment. Palmitoyl = CCCCCCCCCCCCCCCC(=O)*; aThr = C[C@H](O)[C@H](N)C(=O)O; ξV = CC(C)C(N)C(=O)O

Assay [1] deals with dermal wound. As to conditions: rat full thickness excision model; cited from earlier work.
For assay [2], the system named is full thickness injury, atopic dermatitis. As to conditions: rodent models of full thickness injury and atopic dermatitis; cited from earlier work.
The test system of assay [3] is ERK receptor. As to conditions: cited from earlier work.
For assay [4], the system named is diabetic wound. As to conditions: diabetic wound model; cited from earlier work.
Assay [5] relates to full thickness burn. The experiment in a line: burn injury murine model, wound closure. It is filed as in vivo. As to conditions: mouse, 3 days and 7 days post treatment, one-way ANOVA, p<0.05. On the procedure: The benefits of, and potential for, regeneration of the biocompatible and bioactive PA nanofiber scaffold was assessed in a mouse burn injury model. […] (See FIGS. 5 and 6). A 1×1 cm diameter steel billet was heated to 100° C. in a dry heat bath. Mice were anesthetized using isoflurane throughout the procedures. After successful anesthesia had been achieved, mice were clipped circumferentially on their trunks/dorsum and prepped with betadine. Burn injury was accomplished by applying the previously heated billet to the dorsum of each animal for 10 seconds. A total of 6 applications of the rod (3 on each side of the midline back) produced an approx. 20% total body surface area (TBSA) full thickness burn. Mice were further wrapped with a self-adherent wrap to protect the wound. Mice were resuscitated using 1.0 mL i.p. saline (which included 0.03 mL Buprenex SR and 0.06 mL Meloxicam SR) and placed onto warming pads until full recovery from anesthesia was determined. 8 hours post-burn, they received a 2nd bolus of 1 mL i.p. fluid. […] Healing was assessed following a single application. […] Quantification of wound healing was accomplished by digital image planimetry with ImageJ at 3 days, and 7 days post treatment, with representative images of wound healing at day 15 post treatment also being provided.

The subject of assay [6] is erythropoiesis. As to conditions: mice; cited from earlier work.
For assay [7], the target named is T1, receptor of EPO (Homo sapiens, UniProt P19235).
T1 sequence (P19235 25-508): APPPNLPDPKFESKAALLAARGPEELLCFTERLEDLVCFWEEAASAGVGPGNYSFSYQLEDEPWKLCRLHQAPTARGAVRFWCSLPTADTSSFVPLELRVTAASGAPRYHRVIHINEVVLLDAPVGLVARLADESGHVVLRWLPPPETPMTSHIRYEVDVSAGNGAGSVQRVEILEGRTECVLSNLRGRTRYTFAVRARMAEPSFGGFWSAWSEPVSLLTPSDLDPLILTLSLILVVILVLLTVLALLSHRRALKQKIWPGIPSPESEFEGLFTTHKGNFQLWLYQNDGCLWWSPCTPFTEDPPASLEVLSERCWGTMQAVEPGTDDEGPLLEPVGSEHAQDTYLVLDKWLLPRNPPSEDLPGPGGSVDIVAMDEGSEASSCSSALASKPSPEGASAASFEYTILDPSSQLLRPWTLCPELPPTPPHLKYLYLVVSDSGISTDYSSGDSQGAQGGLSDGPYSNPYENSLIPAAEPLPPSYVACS
As to conditions: cyclized through the cysteine residues; cited from earlier work.

For `CC(C)C[C@@H](NC(=O)CNC(=O)[C@@H](Cc1ccc(O)cc1)NC(=O)[C@@H](NC(=O)[C@H](NC(=O)[C@@H](N)CO)C(C)C)C(C)C)C(=O)N[C@@H](CCCNC(=N)N)C(=O)O` [SVVYGLR, SVVYGLR (SEQ ID NO.: 3)], in assay [1], the dermal wound healing result is reported as “effective in promoting dermal wound healing”. For `C[C@H](O)[C@H](NC(=O)[C@@H](CCCNC(=N)N)NC(=O)CNC(=O)[C@@H](CCC(=O)O)NC(=O)[C@@H](N)CCCNC(=N)N)C(=O)O` [REGRT, REGRT (SEQ ID NO.2)] (H-R[dE]G[dR][aThr]-OH), the wound healing result in assay [2] is “promotion of wound healing”. The “phosphorylation of the ERK receptor” value in assay [3] is on record as “effective phosphorylation of the ERK receptor”. On to `N=C(N)NCCC[C@H](NC(=O)[C@@H](Cc1cnc[nH]1)NC(=O)[C@@H](N)CCC(N)=O)C(=O)N[C@H](CCC(=O)O)C(=O)N[C@@H](CC(=O)O)C(=O)NCC(=O)N[C@@H](CO)C(=O)O` [QHREDGS, QHREDGS (SEQ ID NO.4)], for which, in assay [4], the wound closure result is listed as “significantly accelerate wound closure”. Turning to `CCCCCCCCCCCCCCCC(=O)NC(C(=O)N[C@H](C(=O)NCC(=O)N[C@@H](C)C(=O)NCC(=O)N[C@@H](C)C(=O)N[C@H](CCC(=O)O)C(=O)N[C@@H](CCC(=O)O)C(=O)N[C@H](CCC(=O)O)C(N)=O)C(C)C)C(C)C` (stereo partly shown) [diluent PA] (Palmitoyl-[ξV]VGAGA[dE]E[dE]-NH2), the “wound healing by digital image planimetry, significance vs control” value in assay [5] was “significant at 7 days”. Consider “GGTYSCHFGPLTWVCKPQGG (SEQ ID NO.: 1) [EMP1]”, for which, in assay [6], the erythropoiesis result is listed as “stimulating erythropoiesis”. Further, in assay [7], the “activation of the EPO receptor” value is reported as “capable of activating the receptor of EPO”.
